Where “and” joins values, the source holds several entries; their conditions need not be identical. Identical values can stand only once.
Experiments:
[1] = biological target: T1, Melatonin receptor type 1B (Homo sapiens, UniProt P49286); test: Displacement of 2-[125I]iodoMLT from human MT2 receptor expressed in mouse NIH3T3 cells incubated for 90 mins by Cheng-Prusoff equation analysis; format: cell-based
T1 sequence (P49286 whole entry): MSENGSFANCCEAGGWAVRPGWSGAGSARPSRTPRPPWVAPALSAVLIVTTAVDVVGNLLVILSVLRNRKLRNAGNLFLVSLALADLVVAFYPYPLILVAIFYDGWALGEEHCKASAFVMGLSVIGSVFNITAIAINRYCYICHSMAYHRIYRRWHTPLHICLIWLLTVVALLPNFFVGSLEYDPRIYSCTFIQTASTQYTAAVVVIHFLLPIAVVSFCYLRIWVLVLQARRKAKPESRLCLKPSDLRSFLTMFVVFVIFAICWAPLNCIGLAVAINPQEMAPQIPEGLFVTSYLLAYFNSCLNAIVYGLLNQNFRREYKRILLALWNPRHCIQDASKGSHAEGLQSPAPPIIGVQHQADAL

[2] = biological target: T2, Melatonin receptor type 1A (Homo sapiens, UniProt P48039); test: Displacement of 2-[125I]iodoMLT from human MT1 receptor expressed in mouse NIH3T3 cells incubated for 90 mins by Cheng-Prusoff equation analysis; format: cell-based
T2 sequence (P48039 whole entry): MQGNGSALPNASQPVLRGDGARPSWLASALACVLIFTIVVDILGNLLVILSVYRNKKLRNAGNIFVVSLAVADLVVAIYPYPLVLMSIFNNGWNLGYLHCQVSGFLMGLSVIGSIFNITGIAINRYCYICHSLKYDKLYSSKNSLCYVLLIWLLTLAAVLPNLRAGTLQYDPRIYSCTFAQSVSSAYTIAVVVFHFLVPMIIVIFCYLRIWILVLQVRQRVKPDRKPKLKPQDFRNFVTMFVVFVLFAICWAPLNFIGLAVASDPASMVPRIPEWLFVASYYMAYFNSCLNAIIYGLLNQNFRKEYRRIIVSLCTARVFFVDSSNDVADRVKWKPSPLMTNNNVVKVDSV

[3] = biological target: T1, Melatonin receptor type 1B; test: Binding affinity to MT2 receptor (unknown origin) assessed as inhibition constant
[4] = biological target: T2, Melatonin receptor type 1A; test: Binding affinity to MT1 receptor (unknown origin) assessed as inhibition constant
[5] = biological target: T2, Melatonin receptor type 1A; test: Displacement of 2-[125I]iodoMLT from recombinant human MT1 receptor expressed in African green monkey COS-7 cells incubated for 1.5 hrs by Cheng-Prusoff equation analysis; format: cell-based
[6] = biological target: T1, Melatonin receptor type 1B; test: Displacement of 2-[125I]iodoMLT from human MT2 receptor stably expressed in CHO cells by Cheng-Prusoff equation analysis; format: cell-based
[7] = biological target: T2, Melatonin receptor type 1A; test: Displacement of 2-[125I]iodoMLT from human MT1 receptor stably expressed in CHO cells by Cheng-Prusoff equation analysis; format: cell-based
[8] = biological target: T2, Melatonin receptor type 1A; test: Displacement of 2-[125I]iodoMLT from human MT1 receptor stably expressed in CHO cells incubated for 60 mins by Cheng-Prusoff equation analysis; format: cell-based

Row | SMILES | Ki [1] | Ki [2] | other results
1 | COc1ccc2[nH]c(-c3ccccc3)c(CCNC(C)=O)c2c1 | 0.038 nM | 0.0219 nM | –
2 | CC(=O)NCCc1c(-c2cccc(O)c2)oc2ccc3c(c12)CCCO3 | – | – | Ki [3]: 0.21 nM; Ki [4]: 0.87 nM
3 | COc1ccc2[nH]c(Cc3ccccc3)c(CCNC(C)=O)c2c1 | – | – | Ki [5]: 31.6 nM
4 | COc1ccc2[nH]c(-c3ccc4ccccc4c3)c(CCNC(C)=O)c2c1 | 1.1 nM | 36.3 nM | –
5 | COc1ccc2c(c1)c(CCNC(C)=O)c(-c1cccc3ccccc13)n2C | 0.309 nM and 0.575 nM and 0.126 nM | 12 nM and 33.9 nM and 12.9 nM | Ki [6]: 0.302 nM and 0.38 nM and 0.288 nM; Ki [7]: 40.7 nM and 97.7 nM and 33.1 nM
6 | COc1ccc2[nH]c(Oc3ccccc3)c(CCNC(C)=O)c2c1 | 2.95 nM | 11.5 nM | –
7 | COc1ccc2[nH]c(Sc3ccccc3)c(CCNC(C)=O)c2c1 | 0.0631 nM | 0.977 nM | –
8 | COc1cccc(N(CCNC(C)=O)c2cccc(CO)c2)c1 | – | – | Ki [8]: > 100 nM
9 | COc1ccc2[nH]c(-c3cccnc3)c(CCNC(C)=O)c2c1 | 0.0603 nM | 0.17 nM | –
10 | COc1ccc2[nH]c(-c3cccc4[nH]ccc34)c(CCNC(C)=O)c2c1 | 0.295 nM | 14.8 nM | –
11 | COc1ccc2[nH]c(-c3ccc(-c4ccccc4)cc3)c(CCNC(C)=O)c2c1 | 5.01 nM | 16.2 nM | –
12 | COc1ccc2[nH]c(-c3cccc4ccccc34)c(CCNC(C)=O)c2c1 | 0.191 nM | 15.5 nM | –
13 | COc1ccc2[nH]c(-c3cccc4ncccc34)c(CCNC(C)=O)c2c1 | 2.69 nM | 14.8 nM | –

Source: ChEMBL document CHEMBL5352431 (Eur J Med Chem, 2022)
